Source: paper PMC5100903, “Tissue Kallikrein Inhibitors Based on the Sunflower Trypsin Inhibitor Scaffold – A Potential Therapeutic Intervention for Skin Diseases” (PLoS ONE, 2016)
Positions of bridges follow the written chain, without caps; N, C: chain ends. Residues, ends and D or L forms follow the SMILES beside them.

Tested on: in vitro skin equivalent cultures (primary human keratinocytes and fibroblasts)
Test: Organotypic skin culture, in-situ zymography with casein substrate
Format: cell-based
Conditions: 10 μM in PBS, topical, once every day for two days
Procedure: Primary keratinocytes and fibroblasts were isolated from skin biopsies from healthy donors and incubated with 0.25% trypsin/EDTA 3 hours for keratinocytes and Serva 50U/ml collagenase NB6 (Universal Biologicals, Cambridge, UK) 2 hours for fibroblasts. Isolated primary keratinocytes were then co-cultured with lethally irradiated 3T3 mouse fibroblasts and grown in keratinocyte culture media. Primary keratinocytes and fibroblasts from normal donors’ skin biopsies were cultivated in vitro on de-epidermalized dermal matrix as described. Briefly, dermal fibroblasts derived from skin biopsies were seeded onto the reticular side of the de-epidermalized dermal matrix and keratinocytes were seeded on the papillary side. After keratinocytes reached confluence, the culture was lifted at the air-liquid interface for 14 days. The OTCs were then topically treated with Analogue 6 (10 μL, 10 μM) or 1xPBS for the untreated control in two doses each separated by 24hrs. Following treatment, the cultures were harvest and embedded in O.C.T.™ (Sakura Finetek, Netherlands) for cryosections. The cryosections (7 μm thick) of the treated and untreated tissues were washed with 1xPBS. […] Sections were examined under a Leica DM LB fluorescence microscope and the images processed using ImageJ (v1.46).

## CC[C@H](C)[C@@H]1NC(=O)[C@H](CO)NC(=O)[C@H](CCCNC(=N)N)NC(=O)[C@H]([C@@H](C)O)NC(=O)[C@@H]2CSSC[C@H](NC(=O)[C@H](Cc3c[nH]cn3)NC(=O)[C@@H]3CCCN3C(=O)[C@@H]3CCCN3C1=O)C(=O)N[C@@H](Cc1c[nH]c3ccccc13)C(=O)N1CCC[C@H]1C(=O)N[C@@H](CC(=O)O)C(=O)NCC(=O)N[C@@H](CCCNC(=N)N)C(=O)N2 [Analogue 6] (cyclo(CTRSIPPHCWPDGR); disulfide 1-9)
  penetration of the cornified layer of in vitro grown skin: penetrated the cornified layer
  skin protease activity in epidermis (in-situ zymography): weaker in the epidermis of the treated skin compared to untreated skin
